ChEMBL document CHEMBL1201862, “PubChem BioAssay data set” (2004)
Active and inactive are the calls of the source.

Key:
[1] = target: Kallikrein-7 (Homo sapiens, UniProt P49862); test: Fluorescence Intensity-based biochemical primary high throughput dose response assay to identify activators of kallikrein-7 (K7) zymogen.
[2] = target: T1, Low molecular weight phosphotyrosine protein phosphatase (Homo sapiens, UniProt P24666); test: inhibition of human LMPTP enzyme activity – biochemical, absorbance, pNPP substrate, LMPTP-A isoform, set 2, orthogonal assay, dose response (AID 743308); type: functional
T1 sequence (P24666 whole entry): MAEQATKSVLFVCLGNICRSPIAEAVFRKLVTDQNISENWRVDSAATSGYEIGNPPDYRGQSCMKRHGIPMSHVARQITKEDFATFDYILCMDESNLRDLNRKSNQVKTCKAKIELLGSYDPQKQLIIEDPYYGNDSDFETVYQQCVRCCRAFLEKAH

[3] = target: T1, Low molecular weight phosphotyrosine protein phosphatase; test: inhibition of LMPTP-A enzymatic activity – biochemical, OMFP substrate, fluorescence intensity, set 2, dose response (AID 743307); type: functional
[4] = Orthopox viral replication plaque formation Measured in Cell-Based and Microorganism Combination System Using Imaging - 2142-05_Inhibitor_Dose_DryPowder_Activity.; type: functional
[5] = lung carcinoma cell viability loss – CellTiter-Glo luminescence, dry powder, set 17, dose response (AID 1117284); type: functional, cell-based; conditions: A549
[6] = Single fluorophore orthopox expression reporter, late gene expression Measured in Cell-Based and Microorganism Combination System Using Plate Reader - 2142-08_Inhibitor_Dose_DryPowder_Activity.; type: functional
[7] = inhibitors of orthopox intermediate gene expression, dose response, cell-based, single fluorophore reporter, dry powder (AID 1117271); type: functional
[8] = target: T2, Polyadenylate-binding protein 1 (Homo sapiens, UniProt P11940); test: MLLE domain peptide-binding blockers, IC50 – biochemical, fluorescence polarization, FITC-PAM2 peptide, dose response (AID 602259); type: functional; conditions: read-out: IC50_Mean
[9] = target: T2, Polyadenylate-binding protein 1; test: MLLE binding blockers, Cy5 peptide tracer – biochemical, fluorescence polarization, Cy5-PAM2 peptide, secondary, miRNA deadenylation inhibitor project, dose response (AID 602260); type: functional; conditions: read-out: IC50_Mean
[10] = target: Peroxisome proliferator-activated receptor gamma/Nuclear receptor coactivator 1 (Homo sapiens, UniProt P37231); test: TR-FRET dose response biochemical High Throughput Screening assay for agonists of the steroid receptor coactivator 1 (SRC-1) recruitment by the peroxisome proliferator-activated receptor gamma (PPAR gamma): non-selective agonists. [Related pubchem assays (depositor defined):AID1300, AID1808, AID504735, AID631]; type: protein assay
[11] = target: T3, Fibrinogen beta chain (Homo sapiens, UniProt P02675); test: Fluorescence polarization-based biochemical high throughput dose response assay to identify inhibitors that disrupt the binding of a cyclic peptide (Tn7) to the fibrin proteolytic product D-Dimer and fragment E complex [DD(E )].
[12] = target: Peroxisome proliferator-activated receptor gamma/Nuclear receptor coactivator 2 (Homo sapiens, UniProt P37231); test: (§1) TR-FRET dose response biochemical High Throughput Screening assay for agonists of the steroid receptor coactivator 2 (SRC-2) recruitment by the peroxisome proliferator-activated receptor gamma (PPAR gamma): non-selective agonists. [Related pubchem assays: 1297, 1032 ]; type: functional
[13] = target: Peroxisome proliferator-activated receptor gamma/Nuclear receptor coactivator 3 (Homo sapiens, UniProt P37231); test: as §1, with “3 (SRC-3)” for “2 (SRC-2)”, “1301 (Confirmation screen.), 1048 (Primary screen.)]” for “1297, 1032 ]”; type: functional
[14] = target: T3, Fibrinogen beta chain; test: Fluorescence polarization-based biochemical high throughput dose response assay to identify inhibitors that disrupt the binding of a cyclic peptide (Tn6) to the fibrin proteolytic product D-Dimer and fragment E complex [DD(E )].
[15] = growth inhibition of yeast DHODH-expressing 3D7 parasites – SYBR Green, dry powder samples, dose response (AID 1159570); type: functional, cell-based;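 further: parasite growth measured after 72 hours of compound exposure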
[16] = Dd2 malaria parasite growth inhibition potency – SYBR Green, dry powder samples, dose response (AID 1159566); type: functional, cell-based;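 further: potency for growth inhibition with lower SYBR green DNA signal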
[17] = toxicity to human HepG2 hepatoma cells – cell-based, plate reader, dry powder samples, cytotoxicity control, dose response (AID 1159569); type: functional;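 further: inhibitor potency with signal falling toward the positive control level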
[18] = P. falciparum Dd2 growth inhibitors, dose response, SYBR Green, cherry-picked samples (AID 1159567); type: functional, cell-based
[19] = toxicity to human hepatoma HepG2 cells – cell-based, cherry-picked samples, cytotoxicity control, dose response (AID 1159577); type: functional
[20] = growth inhibition of PfATP4-mutant resistant parasites – NITD609-resistant line, SYBR Green, dry powder, dose response (AID 1159571); type: functional, cell-based;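 further: parasites synchronized at ring stage by sorbitol before testing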
[21] = Dd2 parasite growth inhibition in erythrocytes – SYBR Green, dry powder samples, set 4, dose response (AID 1159572); type: functional, cell-based
[22] = cells; type: functional, cell-based; conditions: INS-1E
[23] = IC50 of insulin release inhibition, rat insulinoma INS-1E line, 5 mM glucose, cell-based (AID 1117331); type: functional
[24] = Dd2 parasite growth inhibition in erythrocytes – SYBR Green, dry powder samples, set 9, dose response (AID 1159568); type: functional, cell-based
[25] = Plasmodium falciparum Dd2 Sybr green parasite growth Measured in Cell-Based and Microorganism Combination System Using Plate Reader - 2153-01_Inhibitor_Dose_DryPowder_Activity_Set3.; type: functional

T2 sequence (P11940 whole entry, the tested form may be a part): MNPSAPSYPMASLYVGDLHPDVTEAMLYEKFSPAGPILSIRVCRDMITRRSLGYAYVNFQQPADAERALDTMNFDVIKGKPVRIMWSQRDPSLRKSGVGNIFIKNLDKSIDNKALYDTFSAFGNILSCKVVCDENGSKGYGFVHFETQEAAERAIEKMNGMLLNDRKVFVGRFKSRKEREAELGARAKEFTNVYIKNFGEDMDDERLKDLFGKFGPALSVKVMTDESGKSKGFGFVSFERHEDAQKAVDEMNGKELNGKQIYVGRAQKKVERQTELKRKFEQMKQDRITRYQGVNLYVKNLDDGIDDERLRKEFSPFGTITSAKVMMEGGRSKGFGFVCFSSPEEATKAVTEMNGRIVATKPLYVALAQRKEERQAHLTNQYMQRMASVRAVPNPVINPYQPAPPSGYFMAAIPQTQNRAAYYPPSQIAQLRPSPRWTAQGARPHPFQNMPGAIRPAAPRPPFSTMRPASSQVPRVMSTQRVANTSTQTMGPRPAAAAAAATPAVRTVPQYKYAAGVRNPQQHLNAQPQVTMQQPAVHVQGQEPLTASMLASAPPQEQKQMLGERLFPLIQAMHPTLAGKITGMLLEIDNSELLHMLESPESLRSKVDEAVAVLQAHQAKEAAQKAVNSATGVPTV
T3 sequence (P02675 whole entry, the tested form may be a part): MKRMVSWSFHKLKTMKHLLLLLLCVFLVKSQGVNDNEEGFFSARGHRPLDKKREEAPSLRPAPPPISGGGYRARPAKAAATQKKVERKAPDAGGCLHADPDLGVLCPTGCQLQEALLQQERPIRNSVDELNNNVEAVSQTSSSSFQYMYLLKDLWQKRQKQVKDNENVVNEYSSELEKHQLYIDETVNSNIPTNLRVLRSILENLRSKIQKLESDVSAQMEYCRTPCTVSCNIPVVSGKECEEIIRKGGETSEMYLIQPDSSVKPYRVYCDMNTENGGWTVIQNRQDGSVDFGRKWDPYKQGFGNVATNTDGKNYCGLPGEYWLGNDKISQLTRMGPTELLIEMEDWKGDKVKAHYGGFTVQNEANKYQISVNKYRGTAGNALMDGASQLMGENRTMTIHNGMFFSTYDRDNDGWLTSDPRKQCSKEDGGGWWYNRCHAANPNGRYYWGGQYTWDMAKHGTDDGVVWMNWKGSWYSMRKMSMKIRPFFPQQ
Chain of Kallikrein-7 (P49862 whole entry, canonical isoform): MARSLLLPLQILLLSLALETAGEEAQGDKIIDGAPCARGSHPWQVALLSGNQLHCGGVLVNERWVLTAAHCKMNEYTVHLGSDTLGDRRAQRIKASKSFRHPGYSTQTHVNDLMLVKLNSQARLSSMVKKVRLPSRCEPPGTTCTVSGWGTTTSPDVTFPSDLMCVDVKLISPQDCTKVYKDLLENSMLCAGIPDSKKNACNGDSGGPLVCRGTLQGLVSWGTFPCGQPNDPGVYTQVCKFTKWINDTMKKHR
Chain of Peroxisome proliferator-activated receptor gamma/Nuclear receptor coactivator 3 (P37231 whole entry, the tested form may be a part): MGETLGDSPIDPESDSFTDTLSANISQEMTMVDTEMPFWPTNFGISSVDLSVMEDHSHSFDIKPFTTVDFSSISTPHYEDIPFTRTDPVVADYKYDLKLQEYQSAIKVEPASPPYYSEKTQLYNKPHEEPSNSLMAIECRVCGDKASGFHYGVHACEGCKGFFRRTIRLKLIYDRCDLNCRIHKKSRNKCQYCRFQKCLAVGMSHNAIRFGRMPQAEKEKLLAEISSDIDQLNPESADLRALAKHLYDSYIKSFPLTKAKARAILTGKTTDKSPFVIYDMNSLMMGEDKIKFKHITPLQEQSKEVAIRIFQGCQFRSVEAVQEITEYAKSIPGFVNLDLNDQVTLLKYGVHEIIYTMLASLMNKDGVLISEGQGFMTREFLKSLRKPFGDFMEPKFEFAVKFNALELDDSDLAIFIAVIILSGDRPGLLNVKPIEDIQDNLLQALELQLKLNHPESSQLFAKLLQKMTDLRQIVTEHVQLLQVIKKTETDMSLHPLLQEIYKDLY
Chain of Peroxisome proliferator-activated receptor gamma/Nuclear receptor coactivator 3 (Q9Y6Q9 whole entry, further chain, the tested form may be a part): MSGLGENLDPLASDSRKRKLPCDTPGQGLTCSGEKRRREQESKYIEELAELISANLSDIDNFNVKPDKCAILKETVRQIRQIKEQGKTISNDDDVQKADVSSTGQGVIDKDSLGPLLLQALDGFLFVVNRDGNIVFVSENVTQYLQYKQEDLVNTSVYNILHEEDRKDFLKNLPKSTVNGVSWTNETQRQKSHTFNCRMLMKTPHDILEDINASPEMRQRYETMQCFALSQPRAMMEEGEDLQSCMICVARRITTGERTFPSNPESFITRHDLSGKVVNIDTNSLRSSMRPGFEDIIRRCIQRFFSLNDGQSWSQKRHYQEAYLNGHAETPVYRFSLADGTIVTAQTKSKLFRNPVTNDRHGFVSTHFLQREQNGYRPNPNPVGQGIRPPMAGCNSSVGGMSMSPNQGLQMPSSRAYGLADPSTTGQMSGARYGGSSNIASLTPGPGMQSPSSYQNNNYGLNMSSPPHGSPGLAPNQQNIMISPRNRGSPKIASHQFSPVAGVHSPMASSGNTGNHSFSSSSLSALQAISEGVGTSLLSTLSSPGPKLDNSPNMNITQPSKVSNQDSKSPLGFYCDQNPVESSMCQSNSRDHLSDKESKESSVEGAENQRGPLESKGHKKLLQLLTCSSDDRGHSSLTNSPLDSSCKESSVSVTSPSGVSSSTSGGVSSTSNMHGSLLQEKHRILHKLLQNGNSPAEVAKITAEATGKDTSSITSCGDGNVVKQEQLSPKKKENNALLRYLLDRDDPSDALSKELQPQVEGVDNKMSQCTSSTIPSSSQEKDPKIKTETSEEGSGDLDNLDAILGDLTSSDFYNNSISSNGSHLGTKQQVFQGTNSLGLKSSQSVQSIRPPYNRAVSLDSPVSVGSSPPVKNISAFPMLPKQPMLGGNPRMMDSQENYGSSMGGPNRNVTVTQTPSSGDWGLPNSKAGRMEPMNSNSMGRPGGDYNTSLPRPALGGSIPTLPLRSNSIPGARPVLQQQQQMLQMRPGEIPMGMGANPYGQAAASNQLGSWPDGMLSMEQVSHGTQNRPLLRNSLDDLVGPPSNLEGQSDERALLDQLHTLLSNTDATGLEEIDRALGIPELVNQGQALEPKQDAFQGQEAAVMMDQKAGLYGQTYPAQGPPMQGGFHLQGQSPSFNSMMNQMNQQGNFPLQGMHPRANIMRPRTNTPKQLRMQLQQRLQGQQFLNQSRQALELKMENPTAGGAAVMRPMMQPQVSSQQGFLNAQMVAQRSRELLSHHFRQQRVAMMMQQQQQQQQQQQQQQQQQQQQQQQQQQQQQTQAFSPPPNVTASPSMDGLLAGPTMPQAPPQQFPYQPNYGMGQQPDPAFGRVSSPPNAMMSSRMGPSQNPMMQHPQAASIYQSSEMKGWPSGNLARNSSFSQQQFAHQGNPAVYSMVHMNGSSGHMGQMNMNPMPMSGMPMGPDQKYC

Which EC50 [1] does the source give for CN(C)c1ccc(-c2cccc3nccn23)cc1 here?
The EC50 was > 69500 nM (inactive).

Which results are given for Cc1ccc(-c2cc(NCCCN3CCCCC3)c3ccccc3n2)cc1?
IC50 [2]: 2990 nM (active); IC50 [3]: 1340 nM (active)

For Cc1ccccc1-c1ccc(CN(C)C[C@@H]2Oc3cc(C#C[C@@H](C)O)ccc3S(=O)(=O)N([C@@H](C)CO)C[C@@H]2C)cc1, which AC50 [4] is on record?
The AC50 was 2000 nM (active).

And the AC50 [5]?
Its AC50 is 34600 nM (active).

And the AC50 [6]?
Its AC50 is 768 nM (active).

What about the AC50 [7] of the same molecule?
Its AC50 is 1650 nM (active).

With Cc1cc2cc(CNC(=O)c3ccc(S(=O)(=O)N4CCOCC4)cc3)ccc2n1C as the molecule, how does the IC50 [8] read?
Its IC50 is 49600 nM (inactive).

And the IC50 [9]?
Its IC50 is > 66000 nM (inactive).

And the EC50 [10]?
Its EC50 is 6780 nM (active).

What about the IC50 [11] of the same molecule?
The IC50 was > 83300 nM (inactive).

And the EC50 [12]?
The EC50 was 6710 nM (active).

What about the EC50 [13] of the same molecule?
The EC50 was 15700 nM (not active).

And the IC50 [14]?
Its IC50 is 10600 nM (inactive).

With COc1ccc2c3c([nH]c2c1)[C@H](CO)N(C(=O)Cc1ccccc1)CC31CCN(C(=O)Nc2ccccc2F)CC1 as the molecule, how does the AC50 [15] read?
Its AC50 is 97.7 nM (active).

And the AC50 [16]?
The AC50 was 208 nM (active).

And the AC50 [17]?
Its AC50 is > 100000 nM (inactive).

What about the AC50 [18] of the same molecule?
The AC50 was 472 nM (active).

And the AC50 [19]?
Its AC50 is 25200 nM (active).

What about the AC50 [20] of the same molecule?
Its AC50 is 123 nM (active).

And the AC50 [21]?
The AC50 was 277 nM (active).

What does the source list for CC(C)(C)c1nnc(NS(=O)(=O)c2ccccc2)s1 [GLYBUZOLE]?
IC50 [22]: > 33300 nM (inactive); IC50 [23]: 13100 nM (inactive)

For COc1ccccc1NC(=O)Nc1ccc2c(c1)OC[C@@H](C)N(Cc1ccccc1Cl)C[C@@H](C)[C@H](OC)CN(C)C2=O, which AC50 [15] is on record?
Its AC50 is 874 nM (active).

What about the AC50 [24] of the same molecule?
Its AC50 is 30.5 nM (active).

What about the AC50 [16] of the same molecule?
The AC50 was 16 nM (active).

What about the AC50 [25] of the same molecule?
The AC50 was 181 nM (active).

And the AC50 [18]?
Its AC50 is < 300 nM (active).

What about the AC50 [20] of the same molecule?
The AC50 was 220 nM (active).
